From patent US6191282A, “Substituted 5-membered ring heterocycles comprising a bicyclic or tricyclic group their preparation and their use” (Hoechst Marion Roussel, priority 1993, dated 2001)
Structures can show the parent of a compound that is named as a salt. Where two headings read alike, the source gives them in different places.

Legend:
[1] = tested on: gel-filtered human thrombocytes; experiment: Inhibition of the aggregation of gel-filtered human thrombocytes following stimulation with ADP or thrombin (Test method 1); format: cell-based; conditions: Homo sapiens, 1 mg/ml fibrinogen, 37° C., GFP from 2-4 donors
Procedure: As a functional test, measurement is made of the inhibition of the aggregation of gel-filtered human thrombocytes, following stimulation with ADP or thrombin, by the compounds according to the invention.
For this purpose, human thrombocytes were isolated from platelet-rich plasma (PRP) by gel filtration on Sepharose 2 B. The resulting suspension of gel-filtered platelets (GFP), which contained 3×10^8 platelets/ml, was activated in the presence of 1 mg/ml of fibrinogen either with 10 μM ADP or with 0.1 U/ml thrombin, and stirred in an aggregometer (PAP 4, Biodata, Hatboro, Penna., USA) at 37° C. and at 1000 revolutions per minute. The maximum increase in the translucency is taken as a measure of the aggregation. The test substances were added to the GFP at 37° C. and 2 min before activating with ADP or thrombin.

[2] = target: T1, isolated fibrinogen receptor (glycoprotein IIb/IIIa) (Homo sapiens, UniProt P05106+P08514); experiment: Inhibition of 125I-fibrinogen binding to the isolated, immobilized receptor (glycoprotein IIb/IIIa) (Test method 3); conditions: isolated receptor immobilized in microtitre plates; read-out: Ki, inhibition of the binding of 125I-fibrinogen, ADP-stimulated
T1 construct: isolated from human thrombocytes and immobilized in microtitre plates; from tissue; host or cells: human thrombocytes (platelets), receptor isolated
Procedure: The inhibition of the binding of fibrinogen to its receptor (glycoprotein IIb/IIIa) which is brought about by the compounds according to the invention is tested on the isolated receptor, which was isolated from human thrombocytes and immobilized in microtitre plates.

[3] = target: T2, fibrinogen receptor (glycoprotein IIb/IIIa) on intact, gel-filtered human thrombocytes (Homo sapiens, UniProt P05106+P08514); experiment: Inhibition of 125I-fibrinogen binding to its receptor (glycoprotein IIb/IIIa) on intact, gel-filtered human thrombocytes (Test method 2); conditions: intact GFP, 10 μM ADP, 40 nmol/l 125I-fibrinogen, room temperature, 30 min; read-out: Ki, inhibition of the binding of 125I-fibrinogen, ADP-stimulated
T2 construct: endogenous in cells; host or cells: human thrombocytes isolated from platelet-rich plasma by gel filtration on Sepharose 2 B
Procedure: The inhibition of the binding of fibrinogen to its receptor (glycoprotein IIb/IIIa) by the compounds according to the invention is tested on intact, gel-filtered human thrombocytes.
For this purpose, human thrombocytes were isolated from platelet-rich plasma (PRP) by gel filtration on Sepharose 2 B. A suspension of gel-filtered platelets (GFP) was obtained which contained 4×10^8platelets/ml. […] Aliquots of 100 μl were then added onto 20% sucrose, and the platelets were sedimented by being centrifuged for 2 minutes at 12,000 revolutions per minute. The supernatant was decanted carefully and completely and the remaining sediment was measured in a gamma counter. The specific binding was ascertained by subtracting the binding in the presence of an excess (10 μM) of unlabelled fibrinogen from the total bound radioactivity.

[4] = ADP-stimulated (10 μM ADP), read-out: IC50, inhibition of thrombocyte aggregation, ADP-stimulated
[5] = Thrombin-stimulated (0.1 U/ml thrombin), read-out: IC50, inhibition of thrombocyte aggregation, Thrombin-stimulated

T1 sequence (P08514 32-887 limits assumed): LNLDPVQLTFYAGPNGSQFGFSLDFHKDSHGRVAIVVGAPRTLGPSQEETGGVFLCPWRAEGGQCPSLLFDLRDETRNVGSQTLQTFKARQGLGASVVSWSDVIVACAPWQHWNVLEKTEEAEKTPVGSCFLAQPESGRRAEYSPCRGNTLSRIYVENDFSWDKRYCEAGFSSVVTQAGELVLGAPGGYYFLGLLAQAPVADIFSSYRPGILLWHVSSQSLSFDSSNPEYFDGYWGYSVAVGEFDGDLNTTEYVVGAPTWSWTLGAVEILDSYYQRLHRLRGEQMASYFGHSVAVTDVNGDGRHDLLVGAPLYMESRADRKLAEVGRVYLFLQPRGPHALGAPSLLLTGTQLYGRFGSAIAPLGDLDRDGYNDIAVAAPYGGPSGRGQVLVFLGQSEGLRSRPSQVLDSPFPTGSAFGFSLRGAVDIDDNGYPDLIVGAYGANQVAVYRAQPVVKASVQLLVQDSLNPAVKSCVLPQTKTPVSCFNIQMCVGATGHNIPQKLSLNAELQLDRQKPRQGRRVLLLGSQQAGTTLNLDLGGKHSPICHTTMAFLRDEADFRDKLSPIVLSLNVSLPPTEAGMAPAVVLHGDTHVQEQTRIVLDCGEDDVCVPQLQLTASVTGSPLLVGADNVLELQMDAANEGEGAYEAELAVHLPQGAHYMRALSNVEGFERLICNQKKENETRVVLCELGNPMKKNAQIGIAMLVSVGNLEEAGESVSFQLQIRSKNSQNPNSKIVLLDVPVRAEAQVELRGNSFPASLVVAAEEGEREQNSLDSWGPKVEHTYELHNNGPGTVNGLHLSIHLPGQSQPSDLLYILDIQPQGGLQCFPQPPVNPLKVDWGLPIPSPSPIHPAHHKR
T1 sequence (P08514 891-1039 partner limits assumed): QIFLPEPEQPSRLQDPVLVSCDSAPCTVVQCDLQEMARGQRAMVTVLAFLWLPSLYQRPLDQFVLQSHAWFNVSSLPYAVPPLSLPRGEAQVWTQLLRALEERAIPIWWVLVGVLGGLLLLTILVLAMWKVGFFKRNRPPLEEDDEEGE
T1 sequence (P05106 27-788): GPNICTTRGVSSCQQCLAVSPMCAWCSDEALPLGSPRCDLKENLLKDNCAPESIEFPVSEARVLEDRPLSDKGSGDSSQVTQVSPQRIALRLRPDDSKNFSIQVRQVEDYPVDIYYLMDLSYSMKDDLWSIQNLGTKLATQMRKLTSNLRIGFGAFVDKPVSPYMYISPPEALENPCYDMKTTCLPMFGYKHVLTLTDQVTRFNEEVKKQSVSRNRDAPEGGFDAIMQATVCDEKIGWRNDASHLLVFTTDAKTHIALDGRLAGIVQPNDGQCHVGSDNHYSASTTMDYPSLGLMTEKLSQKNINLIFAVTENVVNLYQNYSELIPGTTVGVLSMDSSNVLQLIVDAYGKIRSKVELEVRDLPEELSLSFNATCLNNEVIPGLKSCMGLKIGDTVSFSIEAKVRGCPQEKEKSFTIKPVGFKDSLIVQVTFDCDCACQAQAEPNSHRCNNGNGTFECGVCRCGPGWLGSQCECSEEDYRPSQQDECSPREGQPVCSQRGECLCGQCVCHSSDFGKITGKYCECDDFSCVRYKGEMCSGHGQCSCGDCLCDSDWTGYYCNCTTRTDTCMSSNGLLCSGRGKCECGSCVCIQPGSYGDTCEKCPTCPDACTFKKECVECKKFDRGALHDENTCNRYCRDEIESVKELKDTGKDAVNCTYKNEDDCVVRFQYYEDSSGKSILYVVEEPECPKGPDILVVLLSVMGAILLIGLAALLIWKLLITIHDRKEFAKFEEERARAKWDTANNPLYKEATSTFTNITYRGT
T2 sequence (P08514 32-887 limits assumed): as the sequence (P08514 32-887 limits assumed) above
T2 sequence (P08514 891-1039 partner limits assumed): as the sequence (P08514 891-1039 partner limits assumed) above
T2 sequence (P05106 27-788): as the sequence (P05106 27-788) above

| SMILES | IC50 [1, 4] | IC50 [1, 5] | Ki [2] | Ki [3] |
| --- | --- | --- | --- | --- |
| CC1(c2ccc(C(=N)N)cc2)NC(=O)N(CC(=O)N[C@@H](CC(=O)O)C(=O)N[C@H](C(=O)O)c2ccccc2)C1=O (stereo partly drawn) [Example 1, ((R,S)-4-(4-(Aminoiminomethyl)phenyl)-4-methyl-2,5-dioxoimidazolidin-1-yl)-acetyl-L-aspartyl-L-phenylglycine] | 40 nM | 50 nM | 0.172 nM | 13.2 nM |
| CC1(c2ccc(C(=N)N)cc2)NC(=O)N(CC(=O)N[C@@H](CC(=O)O)c2ccccc2)C1=O (stereo partly drawn) [Example 56, (S)-3-(((R,S)-4-(4-(aminoiminomethyl)phenyl)-4-methyl-2,5-dioxoimidazolidin-1-yl)acetylamino)-3-phenylpropionic acid hydrochloride] | 100 nM | 60 nM | 0.486 nM | 21.8 nM |
